Here are results for 1 molecule from ChEMBL document CHEMBL4007467, “Effects of 6-paradol, an unsaturated ketone from gingers, on cytochrome P450-mediated drug metabolism” (Bioorg Med Chem Lett, 2017).

Common to all, as to format: ADME
The target in data set [1] is T1, CYP1A2 (Homo sapiens, UniProt P05177).
T1 sequence (P05177 whole entry): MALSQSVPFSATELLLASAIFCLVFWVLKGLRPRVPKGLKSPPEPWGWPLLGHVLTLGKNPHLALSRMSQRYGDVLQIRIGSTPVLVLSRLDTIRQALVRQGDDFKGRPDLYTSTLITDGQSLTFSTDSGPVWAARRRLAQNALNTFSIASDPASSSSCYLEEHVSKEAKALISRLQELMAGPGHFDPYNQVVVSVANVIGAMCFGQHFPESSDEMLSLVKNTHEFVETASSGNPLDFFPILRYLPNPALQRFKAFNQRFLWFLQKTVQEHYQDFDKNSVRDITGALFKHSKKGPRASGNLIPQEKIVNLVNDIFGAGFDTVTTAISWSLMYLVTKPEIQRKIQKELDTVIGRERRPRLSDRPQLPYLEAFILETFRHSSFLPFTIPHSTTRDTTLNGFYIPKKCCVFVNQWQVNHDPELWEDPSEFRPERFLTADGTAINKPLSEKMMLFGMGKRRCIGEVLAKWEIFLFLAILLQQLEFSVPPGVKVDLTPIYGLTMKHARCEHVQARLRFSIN
Kind of data set: Inhibition of CYP1A2 in human liver microsomes assessed as enzyme-mediated metabolite formation at 0.3 uM using phenacetin as substrate incubated for 5 mins followed by NADPH addition measured after 30 mins by LC-MS/MS analysis relative to control. Set-up: scale not given: the % may be the effect or the level left. The note with it: probe phenacetin, read-out: Activity.

Data set [2] concerns the target T2, CYP2B6 (Homo sapiens, UniProt P20813).
T2 sequence (P20813 whole entry): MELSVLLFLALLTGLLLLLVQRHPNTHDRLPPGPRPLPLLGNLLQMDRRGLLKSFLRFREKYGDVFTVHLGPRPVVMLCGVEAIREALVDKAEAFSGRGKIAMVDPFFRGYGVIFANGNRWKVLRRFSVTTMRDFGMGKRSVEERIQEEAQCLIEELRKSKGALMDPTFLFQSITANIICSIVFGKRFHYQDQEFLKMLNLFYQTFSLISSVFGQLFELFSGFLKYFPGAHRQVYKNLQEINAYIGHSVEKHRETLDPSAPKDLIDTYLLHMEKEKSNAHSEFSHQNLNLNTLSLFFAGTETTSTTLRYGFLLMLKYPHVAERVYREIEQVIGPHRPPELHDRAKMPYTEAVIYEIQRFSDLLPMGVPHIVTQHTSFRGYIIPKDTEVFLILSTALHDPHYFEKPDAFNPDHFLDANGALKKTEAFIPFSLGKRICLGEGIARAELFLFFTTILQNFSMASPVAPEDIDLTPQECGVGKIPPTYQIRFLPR
The data set can be described thus: Inhibition of CYP2B6 in human liver microsomes assessed as enzyme-mediated metabolite formation at 3 uM using bupropion as substrate incubated for 5 mins followed by NADPH addition measured after 30 mins by LC-MS/MS analysis relative to control. Set-up: scale not given: the % may be the effect or the level left. The note with it: probe bupropion, read-out: Activity.

The target of data set [3] is T2, CYP2B6. The data set can be described thus: Inhibition of CYP2B6 in human liver microsomes assessed as enzyme-mediated metabolite formation at 30 uM using bupropion as substrate incubated for 5 mins followed by NADPH addition measured after 30 mins by LC-MS/MS analysis relative to control. Set-up: scale not given: the % may be the effect or the level left. The note with it: probe bupropion, read-out: Activity.

Another data set deals with T3, CYP2C8 (Homo sapiens, UniProt P10632).
T3 sequence (P10632 whole entry): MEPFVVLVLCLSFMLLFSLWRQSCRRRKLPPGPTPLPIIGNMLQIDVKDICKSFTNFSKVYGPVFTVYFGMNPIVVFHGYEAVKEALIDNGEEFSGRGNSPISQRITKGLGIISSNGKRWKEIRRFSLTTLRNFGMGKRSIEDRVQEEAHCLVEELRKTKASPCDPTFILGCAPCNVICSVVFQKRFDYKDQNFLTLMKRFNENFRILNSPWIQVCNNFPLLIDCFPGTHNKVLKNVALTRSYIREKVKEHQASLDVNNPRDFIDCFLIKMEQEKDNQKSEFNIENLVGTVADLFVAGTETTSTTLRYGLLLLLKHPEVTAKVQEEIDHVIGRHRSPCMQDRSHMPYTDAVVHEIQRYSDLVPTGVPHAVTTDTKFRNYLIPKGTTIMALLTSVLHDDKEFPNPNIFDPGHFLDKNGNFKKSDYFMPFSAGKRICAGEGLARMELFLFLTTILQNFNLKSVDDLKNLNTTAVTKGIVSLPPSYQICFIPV
Kind of data set: Inhibition of CYP2C8 in human liver microsomes assessed as enzyme-mediated metabolite formation at 3 uM using paclitaxel as substrate incubated for 5 mins followed by NADPH addition measured after 30 mins by LC-MS/MS analysis relative to control. Set-up: scale not given: the % may be the effect or the level left. The note with it: probe paclitaxel, read-out: Activity.

For another data set, the target named is CYP2D6 (Homo sapiens, UniProt P10635). Kind of data set: Inhibition of CYP2D6 in human liver microsomes assessed as enzyme-mediated metabolite formation at 3 uM using dextromethorphan as substrate incubated for 5 mins followed by NADPH addition measured after 30 mins by LC-MS/MS analysis relative to control. Set-up: scale not given: the % may be the effect or the level left. The note with it: probe dextromethorphan, read-out: Activity.
Sequence of CYP2D6 (P10635 whole entry): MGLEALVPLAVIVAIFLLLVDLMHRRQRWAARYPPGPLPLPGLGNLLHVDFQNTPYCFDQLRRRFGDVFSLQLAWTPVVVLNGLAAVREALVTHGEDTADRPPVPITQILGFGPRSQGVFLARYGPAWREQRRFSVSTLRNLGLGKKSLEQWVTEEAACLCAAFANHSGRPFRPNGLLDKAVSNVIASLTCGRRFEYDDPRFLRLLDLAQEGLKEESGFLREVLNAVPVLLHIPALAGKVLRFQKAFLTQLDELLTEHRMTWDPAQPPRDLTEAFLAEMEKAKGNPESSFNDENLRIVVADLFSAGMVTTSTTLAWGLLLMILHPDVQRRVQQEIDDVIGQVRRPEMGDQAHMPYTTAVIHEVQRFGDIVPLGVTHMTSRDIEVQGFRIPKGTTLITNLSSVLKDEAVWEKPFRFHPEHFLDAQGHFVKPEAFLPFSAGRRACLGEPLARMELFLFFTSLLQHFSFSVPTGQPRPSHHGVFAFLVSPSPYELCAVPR

The target in data set [4] is T4, CYP3A4 (Homo sapiens, UniProt P08684). The data set can be described thus: Inhibition of CYP3A4 in human liver microsomes assessed as enzyme-mediated metabolite formation at 10 uM using testosterone as substrate incubated for 5 mins followed by NADPH addition measured after 30 mins by LC-MS/MS analysis relative to control. Also on record: scale not given: the % may be the effect or the level left. The note with it: probe testosterone, read-out: Activity.
T4 sequence (P08684 whole entry): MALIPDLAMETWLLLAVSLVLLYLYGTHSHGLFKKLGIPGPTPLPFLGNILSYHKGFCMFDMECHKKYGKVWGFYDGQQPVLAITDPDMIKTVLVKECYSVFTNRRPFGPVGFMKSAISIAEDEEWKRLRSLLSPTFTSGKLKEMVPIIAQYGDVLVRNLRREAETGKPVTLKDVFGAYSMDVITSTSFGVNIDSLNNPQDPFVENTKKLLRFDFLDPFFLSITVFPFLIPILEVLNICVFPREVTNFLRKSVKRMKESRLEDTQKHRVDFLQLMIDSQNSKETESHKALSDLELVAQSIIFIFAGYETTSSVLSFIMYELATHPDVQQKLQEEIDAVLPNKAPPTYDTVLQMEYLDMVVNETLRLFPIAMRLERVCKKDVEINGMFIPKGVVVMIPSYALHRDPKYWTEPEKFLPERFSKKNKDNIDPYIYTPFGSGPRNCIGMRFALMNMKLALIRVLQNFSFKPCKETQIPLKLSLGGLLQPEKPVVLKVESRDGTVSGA

Data set [5] deals with T1, CYP1A2. The data set can be described thus: Inhibition of CYP1A2 in human liver microsomes assessed as enzyme-mediated metabolite formation at 1 uM using phenacetin as substrate preincubated for 20 mins followed by substrate addition measured after 30 mins in presence of NADPH by LC-MS/MS analysis relative to control. Also on record: scale not given: the % may be the effect or the level left. The note with it: probe phenacetin, read-out: Activity.

The next data set addresses T5, Cytochrome P450 2A6 (Homo sapiens, UniProt P11509).
T5 sequence (P11509 whole entry): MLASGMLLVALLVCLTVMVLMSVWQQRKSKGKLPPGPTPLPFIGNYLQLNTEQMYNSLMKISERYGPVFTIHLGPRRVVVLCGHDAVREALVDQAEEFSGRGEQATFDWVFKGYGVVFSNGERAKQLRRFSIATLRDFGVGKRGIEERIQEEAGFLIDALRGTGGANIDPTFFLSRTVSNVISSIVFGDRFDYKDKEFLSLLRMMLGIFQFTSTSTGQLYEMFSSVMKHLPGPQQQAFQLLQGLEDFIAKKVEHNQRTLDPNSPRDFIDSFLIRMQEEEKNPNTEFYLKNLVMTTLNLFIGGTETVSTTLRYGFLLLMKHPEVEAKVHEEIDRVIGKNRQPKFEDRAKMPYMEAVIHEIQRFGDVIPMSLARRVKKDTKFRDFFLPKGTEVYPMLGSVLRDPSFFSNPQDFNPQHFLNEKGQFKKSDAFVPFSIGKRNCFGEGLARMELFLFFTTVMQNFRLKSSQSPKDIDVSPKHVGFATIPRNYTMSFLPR
Kind of data set: Inhibition of CYP2A6 in human liver microsomes using coumarin as substrate preincubated for 20 mins followed by substrate addition measured after 30 mins in presence of NADPH by LC-MS/MS analysis.

The target in data set [6] is T4, CYP3A4. The data set can be described thus: Inhibition of CYP3A4 in human liver microsomes assessed as enzyme-mediated metabolite formation at 10 uM using midazolam as substrate preincubated for 20 mins followed by substrate addition measured after 30 mins in presence of NADPH by LC-MS/MS analysis relative to control. Set-up: scale not given: the % may be the effect or the level left. The note with it: probe midazolam, read-out: Activity.

On to `CCCCCCCC(=O)CCc1ccc(O)c(OC)c1`, for which, at CYP1A2 [1], the activity at 0.5 h, 0.3 µM was 97.8%. Moreover, the activity at 0.5 h, 3 µM on CYP2B6 [2] is 65.7%; at CYP2C8, 58.7%; at CYP2D6, 74.6%. For the same molecule, the activity at 0.5 h, 30 µM on CYP2B6 [3] was determined as 37%. For the same molecule, the activity at 0.5 h, 10 µM on CYP3A4 [4] worked out at 58.6%; at CYP3A4 [6] it was 110%. On CYP1A2 [5], the activity at 0.5 h, 1 µM is 82.1%. Further, the half-inhibitory concentration (IC50) at Cytochrome P450 2A6 is more than 30 µM.
